Reference: ChEMBL document CHEMBL3745631, “Discovery of highly potent and selective Bruton's tyrosine kinase inhibitors: Pyridazinone analogs with improved metabolic stability” (Bioorg Med Chem Lett, 2016)

Columns and labels:
[1] = target: Casein kinase II subunit alpha (Homo sapiens) (UniProt P68400); test: Inhibition of CK2 alpha1 (unknown origin) at 1 uM
Mus musculus = test: Clearance in mouse at 1 mg/kg, iv by LC-MS/MS analysis; format: ADME, organism-based; conditions: in vivo
[2] = target: Tyrosine-protein kinase Lck (Homo sapiens) (UniProt P06239); test: Inhibition of LCK (unknown origin) at 1 uM
[3] = target: Mitogen-activated protein kinase 10 (Homo sapiens) (UniProt P53779); test: Inhibition of JNK3 (unknown origin) at 1 uM
[4] = target: Focal adhesion kinase 1 (Homo sapiens) (UniProt Q05397); test: Inhibition of FAK (unknown origin) at 1 uM
[5] = target: Tyrosine-protein kinase Mer (Homo sapiens) (UniProt Q12866); test: Inhibition of Mer (unknown origin) at 1 uM
[6] = target: Tyrosine-protein kinase Yes (Homo sapiens) (UniProt P07947); test: Inhibition of Yes (unknown origin) at 1 uM
[7] = target: Platelet-derived growth factor receptor alpha (Homo sapiens) (UniProt P16234); test: Inhibition of PDGFR alpha (unknown origin) at 1 uM
[8] = target: Calcium/calmodulin-dependent protein kinase kinase 2 (Homo sapiens) (UniProt Q96RR4); test: Inhibition of CAMKK2 (unknown origin) at 1 uM
[9] = target: Vascular endothelial growth factor receptor 2 (Homo sapiens) (UniProt P35968); test: Inhibition of KDR (unknown origin) at 1 uM
[10] = target: Serine/threonine-protein kinase Chk1 (Homo sapiens) (UniProt O14757); test: Inhibition of CHK1 (unknown origin) at 1 uM
[11] = target: MAP kinase-activated protein kinase 2 (Homo sapiens) (UniProt P49137); test: Inhibition of MAPKAPK2 (unknown origin) at 1 uM
[12] = target: Casein kinase I isoform epsilon (Homo sapiens) (UniProt P49674); test: Inhibition of CK1 epsilon1 (unknown origin) at 1 uM
[13] = target: Interleukin-1 receptor-associated kinase 1 (Homo sapiens) (UniProt P51617); test: Inhibition of IRAK1 (unknown origin) at 1 uM
Salmonella typhimurium = test: Genotoxicity in Salmonella typhimurium TA98 by Ames test in presence of S9 fraction; format: toxicity, organism-based; conditions: salmonella enterica subsp. enterica serovar typhimurium
[14] = target: Serine/threonine-protein kinase D1 (PRKD1) (Homo sapiens) (UniProt Q15139); test: Inhibition of PKD1 (unknown origin) at 1 uM
[15] = target: Insulin-like growth factor 1 receptor (Homo sapiens) (UniProt P08069); test: Inhibition of IGF1R (unknown origin) at 1 uM
[16] = target: Serine/threonine-protein kinase MARK1 (Homo sapiens) (UniProt Q9P0L2); test: Inhibition of MARK1 (unknown origin) at 1 uM
[17] = target: MAP kinase-activated protein kinase 5 (Homo sapiens) (UniProt Q8IW41); test: Inhibition of PRAK (unknown origin) at 1 uM
[18] = target: STE20-like serine/threonine-protein kinase (SLK) (Homo sapiens) (UniProt Q9H2G2); test: Inhibition of SLK (unknown origin) at 1 uM
[19] = target: Tyrosine-protein kinase SYK (Homo sapiens) (UniProt P43405); test: Inhibition of Syk (unknown origin) at 1 uM
[20] = target: Beta-adrenergic receptor kinase 1 (Homo sapiens) (UniProt P25098); test: Inhibition of GRK2 (unknown origin) at 1 uM
[21] = target: Serine/threonine-protein kinase Sgk2 (Homo sapiens) (UniProt Q9HBY8); test: Inhibition of SGK2 (unknown origin) at 1 uM
[22] = target: Calcium/calmodulin-dependent protein kinase type II subunit alpha (Homo sapiens) (UniProt Q9UQM7); test: Inhibition of CamK2 alpha (unknown origin) at 1 uM
[23] = target: Aurora kinase A (Homo sapiens) (UniProt O14965); test: Inhibition of AuroraA (unknown origin) at 1 uM
[24] = target: Fibroblast growth factor receptor 3 (Homo sapiens) (UniProt P22607); test: Inhibition of FGFR3 (unknown origin) at 1 uM
[25] = system: RAF proto-oncogene serine/threonine-protein kinase (Homo sapiens), P04049 [Y340D,Y341D]; test: Inhibition of RAF1 Y340D, Y341D mutant (unknown origin) at 1 uM
[26] = target: Dual specificity tyrosine-phosphorylation-regulated kinase 3 (Homo sapiens) (UniProt O43781); test: Inhibition of DYRK3 (unknown origin) at 1 uM
[27] = target: G protein-coupled receptor kinase 5 (Homo sapiens) (UniProt P34947); test: Inhibition of GRK5 (unknown origin) at 1 uM
[28] = target: CDK8/Cyclin C (Homo sapiens) (UniProt P49336+P24863); test: Inhibition of CDK8/cyclinC (unknown origin) at 1 uM; format: protein-complex assay
[29] = target: Serine/threonine-protein kinase 24 (Homo sapiens) (UniProt Q9Y6E0); test: Inhibition of MST3 (unknown origin) at 1 uM
[30] = target: Tyrosine-protein kinase FRK (Homo sapiens) (UniProt P42685); test: Inhibition of Frk (unknown origin) at 1 uM
[31] = target: Serine/threonine-protein kinase mTOR (Homo sapiens) (UniProt P42345); test: Inhibition of mTOR (unknown origin) at 1 uM
[32] = target: Tyrosine-protein kinase Fgr (Homo sapiens, UniProt P09769); test: Inhibition of FGR (unknown origin)
[33] = target: Dual specificity mitogen-activated protein kinase kinase 3 (Homo sapiens) (UniProt P46734); test: Inhibition of MEK3 (unknown origin) at 1 uM
[34] = target: Non-receptor tyrosine-protein kinase TYK2 (Homo sapiens) (UniProt P29597); test: Inhibition of TYK2 (unknown origin) at 1 uM
[35] = target: SRSF protein kinase 1 (Homo sapiens) (UniProt Q96SB4); test: Inhibition of SRPK1 (unknown origin) at 1 uM
hERG (KCNH2) = hERG (KCNH2) (Homo sapiens, UniProt Q12809); test: Inhibition of human ERG at 10 uM
[36] = target: MAP/microtubule affinity-regulating kinase 3 (Homo sapiens) (UniProt P27448); test: Inhibition of MARK3 (unknown origin) at 1 uM
[37] = target: Mitogen-activated protein kinase kinase kinase 5 (Homo sapiens) (UniProt Q99683); test: Inhibition of ASK1 (unknown origin) at 1 uM
[38] = target: Tyrosine-protein kinase Srms (Homo sapiens) (UniProt Q9H3Y6); test: Inhibition of Srm (unknown origin) at 1 uM
Cynomolgus monkey = test: Clearance in cynomolgus monkey at 1 mg/kg, iv by LC-MS/MS analysis; format: ADME, organism-based, Macaca fascicularis; conditions: in vivo
[39] = target: Serine/threonine-protein kinase SIK2 (Homo sapiens) (UniProt Q9H0K1); test: Inhibition of SIK2 (unknown origin) at 1 uM
[40] = target: Mitogen-activated protein kinase kinase kinase 20 (Homo sapiens) (UniProt Q9NYL2); test: Inhibition of ZAK (unknown origin) at 1 uM

Chain of Platelet-derived growth factor receptor alpha (Homo sapiens) (P16234 whole entry): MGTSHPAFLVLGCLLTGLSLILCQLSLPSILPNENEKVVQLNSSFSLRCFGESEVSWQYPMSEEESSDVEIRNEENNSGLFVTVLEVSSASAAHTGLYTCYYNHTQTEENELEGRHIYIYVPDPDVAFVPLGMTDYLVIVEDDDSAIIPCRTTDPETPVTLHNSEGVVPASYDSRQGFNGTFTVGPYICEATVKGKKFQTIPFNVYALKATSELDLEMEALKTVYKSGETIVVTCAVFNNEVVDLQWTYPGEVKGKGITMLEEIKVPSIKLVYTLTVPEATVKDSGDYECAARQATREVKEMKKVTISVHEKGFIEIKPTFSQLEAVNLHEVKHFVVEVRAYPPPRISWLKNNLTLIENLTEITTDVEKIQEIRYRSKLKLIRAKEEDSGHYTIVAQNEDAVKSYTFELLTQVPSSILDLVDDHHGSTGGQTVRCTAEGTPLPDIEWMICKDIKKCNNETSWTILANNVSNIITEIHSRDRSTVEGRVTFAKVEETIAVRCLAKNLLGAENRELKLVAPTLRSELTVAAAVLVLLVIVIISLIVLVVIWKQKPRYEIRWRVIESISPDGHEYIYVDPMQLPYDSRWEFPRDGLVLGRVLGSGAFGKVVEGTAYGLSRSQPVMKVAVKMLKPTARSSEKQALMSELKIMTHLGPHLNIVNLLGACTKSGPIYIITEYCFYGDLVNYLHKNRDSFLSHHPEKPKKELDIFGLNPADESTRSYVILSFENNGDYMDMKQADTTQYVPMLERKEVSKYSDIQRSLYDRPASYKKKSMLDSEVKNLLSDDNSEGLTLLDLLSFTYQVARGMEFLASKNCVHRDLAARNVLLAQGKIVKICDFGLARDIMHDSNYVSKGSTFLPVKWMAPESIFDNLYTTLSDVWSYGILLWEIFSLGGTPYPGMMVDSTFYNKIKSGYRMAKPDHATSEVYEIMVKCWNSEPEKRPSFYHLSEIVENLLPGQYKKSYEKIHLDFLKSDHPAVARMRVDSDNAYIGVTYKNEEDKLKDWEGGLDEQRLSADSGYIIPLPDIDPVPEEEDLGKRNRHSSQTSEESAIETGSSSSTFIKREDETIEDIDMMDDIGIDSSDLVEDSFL
Chain of Casein kinase II subunit alpha (Homo sapiens) (P68400 whole entry, looked up): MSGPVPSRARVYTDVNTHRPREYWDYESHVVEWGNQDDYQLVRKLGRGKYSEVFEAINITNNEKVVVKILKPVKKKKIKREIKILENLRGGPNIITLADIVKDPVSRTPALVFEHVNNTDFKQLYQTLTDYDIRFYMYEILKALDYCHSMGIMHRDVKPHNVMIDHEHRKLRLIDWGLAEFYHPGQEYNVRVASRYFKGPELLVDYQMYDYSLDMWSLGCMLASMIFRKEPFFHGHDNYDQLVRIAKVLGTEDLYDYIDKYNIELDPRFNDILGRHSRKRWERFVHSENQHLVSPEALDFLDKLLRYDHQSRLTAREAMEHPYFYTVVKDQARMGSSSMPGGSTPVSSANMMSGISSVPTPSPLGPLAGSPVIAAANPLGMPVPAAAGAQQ
Chain of Tyrosine-protein kinase Mer (Homo sapiens) (Q12866 whole entry): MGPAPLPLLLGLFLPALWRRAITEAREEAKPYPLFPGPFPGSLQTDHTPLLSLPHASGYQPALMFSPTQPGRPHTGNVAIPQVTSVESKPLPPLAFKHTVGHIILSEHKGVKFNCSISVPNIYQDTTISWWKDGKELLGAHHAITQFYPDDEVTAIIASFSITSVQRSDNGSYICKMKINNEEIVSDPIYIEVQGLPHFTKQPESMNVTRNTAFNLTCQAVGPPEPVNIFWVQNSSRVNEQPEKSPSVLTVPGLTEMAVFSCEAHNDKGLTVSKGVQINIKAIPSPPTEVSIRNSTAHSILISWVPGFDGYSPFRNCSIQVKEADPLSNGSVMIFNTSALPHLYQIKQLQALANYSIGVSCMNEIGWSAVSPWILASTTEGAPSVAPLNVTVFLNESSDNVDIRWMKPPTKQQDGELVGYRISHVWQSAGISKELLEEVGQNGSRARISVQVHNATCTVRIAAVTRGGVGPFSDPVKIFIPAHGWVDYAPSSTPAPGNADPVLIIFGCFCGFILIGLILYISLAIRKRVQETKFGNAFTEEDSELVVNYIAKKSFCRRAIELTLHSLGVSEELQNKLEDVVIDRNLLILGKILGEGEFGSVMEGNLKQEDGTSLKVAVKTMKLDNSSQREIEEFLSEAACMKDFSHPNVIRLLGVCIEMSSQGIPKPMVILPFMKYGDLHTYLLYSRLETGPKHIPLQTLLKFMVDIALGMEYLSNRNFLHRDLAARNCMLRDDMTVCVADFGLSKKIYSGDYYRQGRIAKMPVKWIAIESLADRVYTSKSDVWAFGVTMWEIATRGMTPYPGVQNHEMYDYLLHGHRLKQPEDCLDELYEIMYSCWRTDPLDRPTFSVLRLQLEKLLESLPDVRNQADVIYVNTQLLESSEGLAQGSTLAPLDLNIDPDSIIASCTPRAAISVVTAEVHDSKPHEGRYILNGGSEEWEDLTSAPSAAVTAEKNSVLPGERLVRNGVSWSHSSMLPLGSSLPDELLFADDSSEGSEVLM
Chain of Tyrosine-protein kinase Lck (Homo sapiens) (P06239 2-509 limits assumed): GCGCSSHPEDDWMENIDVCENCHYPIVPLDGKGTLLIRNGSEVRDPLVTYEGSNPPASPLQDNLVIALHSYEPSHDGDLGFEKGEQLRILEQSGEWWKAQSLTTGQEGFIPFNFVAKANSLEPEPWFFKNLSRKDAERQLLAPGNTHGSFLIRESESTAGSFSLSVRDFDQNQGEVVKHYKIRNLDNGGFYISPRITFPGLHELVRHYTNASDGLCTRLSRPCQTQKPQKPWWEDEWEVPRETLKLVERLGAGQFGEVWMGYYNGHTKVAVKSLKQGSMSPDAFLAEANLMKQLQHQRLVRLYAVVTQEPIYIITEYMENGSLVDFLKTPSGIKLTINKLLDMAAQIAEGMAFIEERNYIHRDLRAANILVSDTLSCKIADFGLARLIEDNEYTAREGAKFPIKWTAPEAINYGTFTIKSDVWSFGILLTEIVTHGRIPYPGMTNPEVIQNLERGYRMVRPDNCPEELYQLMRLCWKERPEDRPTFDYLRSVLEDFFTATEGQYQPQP
Chain of Aurora kinase A (Homo sapiens) (O14965 whole entry): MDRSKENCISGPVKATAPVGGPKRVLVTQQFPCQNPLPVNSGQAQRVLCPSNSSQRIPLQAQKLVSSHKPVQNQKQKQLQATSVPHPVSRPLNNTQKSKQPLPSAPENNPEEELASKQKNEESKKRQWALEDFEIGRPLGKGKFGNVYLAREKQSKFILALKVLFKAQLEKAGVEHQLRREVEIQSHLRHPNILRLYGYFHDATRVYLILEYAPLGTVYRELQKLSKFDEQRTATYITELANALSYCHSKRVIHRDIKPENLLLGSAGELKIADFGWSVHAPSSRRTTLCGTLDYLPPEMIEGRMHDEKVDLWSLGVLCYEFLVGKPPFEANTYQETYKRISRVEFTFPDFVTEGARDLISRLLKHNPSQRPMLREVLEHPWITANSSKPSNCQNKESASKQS
Chain of Tyrosine-protein kinase Fgr (P09769 whole entry): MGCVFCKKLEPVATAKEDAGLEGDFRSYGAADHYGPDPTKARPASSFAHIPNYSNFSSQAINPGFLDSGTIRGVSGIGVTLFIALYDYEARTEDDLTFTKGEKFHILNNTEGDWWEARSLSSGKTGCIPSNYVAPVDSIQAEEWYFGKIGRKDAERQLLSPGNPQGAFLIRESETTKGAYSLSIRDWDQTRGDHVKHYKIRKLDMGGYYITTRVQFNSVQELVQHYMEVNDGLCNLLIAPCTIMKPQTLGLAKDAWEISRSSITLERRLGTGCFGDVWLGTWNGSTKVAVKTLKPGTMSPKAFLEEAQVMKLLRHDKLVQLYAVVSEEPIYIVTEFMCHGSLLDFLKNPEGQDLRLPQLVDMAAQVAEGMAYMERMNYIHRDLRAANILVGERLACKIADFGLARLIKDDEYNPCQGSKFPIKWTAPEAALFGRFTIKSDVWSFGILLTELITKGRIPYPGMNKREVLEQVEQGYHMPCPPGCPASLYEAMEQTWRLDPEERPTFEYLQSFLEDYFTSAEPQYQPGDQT
Chain of Dual specificity mitogen-activated protein kinase kinase 3 (Homo sapiens) (P46734 whole entry): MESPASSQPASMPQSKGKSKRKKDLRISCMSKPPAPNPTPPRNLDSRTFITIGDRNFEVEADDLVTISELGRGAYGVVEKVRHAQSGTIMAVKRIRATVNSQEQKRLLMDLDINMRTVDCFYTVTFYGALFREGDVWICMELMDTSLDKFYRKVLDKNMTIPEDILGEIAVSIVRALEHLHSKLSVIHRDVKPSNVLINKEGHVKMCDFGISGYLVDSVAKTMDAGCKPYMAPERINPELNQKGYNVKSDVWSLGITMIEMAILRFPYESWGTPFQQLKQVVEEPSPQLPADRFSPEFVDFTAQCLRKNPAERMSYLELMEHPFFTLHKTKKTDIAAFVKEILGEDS
Chain of Serine/threonine-protein kinase Chk1 (Homo sapiens) (O14757 whole entry): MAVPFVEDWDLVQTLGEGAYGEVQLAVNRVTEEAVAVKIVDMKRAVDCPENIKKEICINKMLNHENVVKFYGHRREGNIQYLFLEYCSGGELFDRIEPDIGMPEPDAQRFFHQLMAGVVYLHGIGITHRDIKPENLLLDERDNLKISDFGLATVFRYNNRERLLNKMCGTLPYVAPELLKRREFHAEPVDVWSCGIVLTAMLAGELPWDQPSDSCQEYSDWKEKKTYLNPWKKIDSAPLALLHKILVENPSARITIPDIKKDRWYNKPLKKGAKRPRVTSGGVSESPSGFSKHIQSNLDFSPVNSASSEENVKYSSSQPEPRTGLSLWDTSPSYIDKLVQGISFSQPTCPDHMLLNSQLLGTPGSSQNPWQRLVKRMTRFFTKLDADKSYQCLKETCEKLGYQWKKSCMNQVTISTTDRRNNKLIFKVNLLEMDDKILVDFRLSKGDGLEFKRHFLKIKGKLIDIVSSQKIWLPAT

Which results are given for `Cc1c(-c2cc(Nc3cc4n(n3)CCN(C)C4)c(=O)[nH]n2)ccc(F)c1NC(=O)c1cc2ccccc2s1`?
inhibition [1]: 0.8%; clearance (Mus musculus): 43 mL/min/kg; inhibition [2]: 39.3%; inhibition [3]: 10.3%; inhibition [4]: 3.6%; inhibition [5]: 3%; inhibition [6]: 20.8%; inhibition [7]: 0.2%; inhibition [8]: 8.2%; inhibition [9]: -2.4%; inhibition [10]: 4.8%; inhibition [11]: 10.8%; inhibition [12]: 8.6%; inhibition [13]: -2.2%; Activity (Salmonella typhimurium): Non-toxic; inhibition [14]: 1.6%; inhibition [15]: 6.4%; inhibition [16]: -4.7%; inhibition [17]: 2%; inhibition [18]: -3%; inhibition [19]: 5.6%; inhibition [20]: 0.8%; inhibition [21]: -2.3%; inhibition [22]: 2.8%; inhibition [23]: 1.1%; inhibition [24]: 1.8%; inhibition [25]: 5.5%; inhibition [26]: 3.3%; inhibition [27]: 3.8%; inhibition [28]: 1%; inhibition [29]: 9%; inhibition [30]: -0.8%; inhibition [31]: 1.1%; IC50 [32]: 1030 nM; inhibition [33]: -1.1%; inhibition [34]: 4.3%; inhibition [35]: 0.6%; inhibition at 10 µM (hERG (KCNH2)): 27%; inhibition [36]: -5.4%; inhibition [37]: -2.1%; inhibition [38]: 15.7%; clearance (Cynomolgus monkey): 4 mL/min/kg; inhibition [39]: -3.9%; inhibition [40]: 0.8%
